Series [1] relates to hippocampal inositol phosphate. As to the kind of experiment: In vivo tissue inositol phosphate signaling pathway activation, hippocampus. On the set-up: species or system Long Evans Hooded rats. As to conditions: rat, Compound 3 1 mg/kg, antagonist 0.1 mg/kg. As to the method: (§1) Experimental compounds or drug substances were administered using standard techniques to Long Evans Hooded rats weighing 225 to 350 grams, and which had been pretreated with a subcutaneous injection of lithium chloride at a suitable dose between 3 and 10 mmoles per kg. At suitable times the animals were briefly anesthetized using 5% isoflurane and euthanized by decapitation. The brains and submaxillary salivary glands were rapidly dissected out, and the hippocampuses were dissected from the brains. The dissected tissues were homogenized in a suitable volume of ice-cold phosphate-buffered saline containing 10 mM lithium chloride, pH7.4, using a tissue homogenizer, and used immediately or frozen in aliquots at −80 deg C. for future use. The concentration of inositol-1-phosphate was determined in the homogenates using the IPOne TR-FRET assay (CisBio cat no 621PAPEB), following the manufacturer's instruction

The subject of series [2] is anesthetized rats. As to the kind of experiment: Salivation after iontophoretic transdermal co-delivery of agonist and antagonist. The series is classed as in vivo, Long Evans Hooded rats. As to conditions: anesthetized rat, one patch with 1 mg Compound 3 plus 0.01 mg antagonist. As to the method: Experimental compounds and drug substances were delivered transdermally in rats using iontophoresis as follows. The fur was shaved from the backs of Long Evans Hooded rats weighing 225 to 325 grams, using electric clippers. Experimental compounds and drug substances were formulated at suitable concentrations an aqueous mixture of the following composition:
The polyvinyl alcohol/water was heated to 95 deg C. until it became clear, then the other constituents were added and mixed well. The mixture was introduced into suitable molds containing a disc-shaped cavity 2.2 cm diameter and 2.2 mm deep. Molds may be fabricated using two glass sheets separated by a silicone rubber sheet with suitable sized cavities and filling ports cut-outs. The molds were subject to 3 freeze-thaw cycles at −80 deg C. and 20 deg C. until a firm cryogel was obtained. The gels were separated from the molds and trimmed into a circular shape. The gel was placed in a silicone rubber casing with one face in contact with a circular silver foil anodic electrode (22 mm dia/250 microns thick), and the assembly was placed on the shaved skin of the rat such that the other face was in contact with the skin on one side of the back of the rat. The rubber casing formed a seal over and around the gel/electrode assembly. […] This was placed on the other side of the shaved back of the rat, the edges of the gel discs being about 20 mm apart at their nearest point. A DC voltage was applied across the two patches from a constant-current DC power supply and the voltage adjusted to obtain the desired current, such that the skin of the animal completed the electrical circuit.
The devices were placed on shaved backs of anesthetized rats and salivation was measured.
(§2) The animals were placed slightly head-down on an inclined, heated ramp. Rectal temperature was monitored using a thermocouple and the temperature of the heating pad was adjusted manually to maintain normal body temperature. Saliva was collected from the mouth by absorption onto pre-weighed slips of filter paper. The filter paper was changed periodically and the amount of saliva was measured by weighing the filter paper slips

In series [3] the test system is salivary gland inositol phosphate. Kind of series: In vivo tissue inositol phosphate signaling pathway activation, salivary gland. Set-up: species or system Long Evans Hooded rats. As to conditions: rat, Compound 3 1 mg/kg. As to the method: as §1
Series [4] relates to anesthetized normal rats. As to the kind of experiment: In vivo measurement of salivation. The following applies: rats. On the set-up: species or system Long Evans Hooded rats. As to the method: as §2, with “Suitable doses of test compounds or drug substances were administered using standard techniques to Long Evans Hooded rats weighing 225 to 350 grams, or CD-1 mice weighing 30 to 50 grams, which had been anesthetized using 2-3.5%% of isoflurane in oxygen. The animals” for “The animals”

Series [5] concerns rats. As to the kind of experiment: In vivo muscarinic effects in rats after oral dosing. The text has this:
In these respects it was essentially the same as compound 3.

Series [6] addresses T1, human muscarinic M3 receptors (Homo sapiens, UniProt P20309).
T1 construct: host or cells: A9L cells
Kind of series: IP production in A9L cells with human M3 receptors (IPOne TR-FRET), Example 28. The series is classed as cell-based. A digest of the protocol: (§3)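 A9L cells transfected with human M1 or M3 receptors, exposed to compound in medium with 10 mM LiCl and 10 mM HEPES (pH 7.4) for 60 min at 37 °C. IP in lysates measured by IPOne TR-FRET; efficacy expressed relative to full agonist (100%).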

Series [7] in a line: Blood and brain concentrations (rats), oral gavage. The class given is in vivo, Long-Evans Hooded rats. The following applies: rats, oral dosing. As to the method:
Long-Evans Hooded rats (Charles River: male, 250-350 g) were dosed with solutions of test compounds in PBS by oral gavage. At the desired time after dosing, the animals were anesthetized with isoflurane, and then euthanized by cervical dislocation. Blood was obtained by cardiac puncture, transferred to a 1.5 mL microcentrifuge tube containing 15U Heparin, and the plasma recovered after centrifugation. Brains were dissected, weighed, immediately chilled to 4° C., and homogenized using a PowerGen 125 homogenizer in five volumes of ice-cold 2% formic acid. Proteins were precipitated from plasma and brain homogenate with two and five volumes respectively of ice-cold 2% formic acid and clarified by centrifugation. The supernatant was ultra-filtered by centrifugation through a 3K MWCO spin column (Pall Life Sciences), following the manufacturer's instructions. The concentration of compound in the ultra-filtrate was subjected to reverse-phase liquid chromatography using a 150×2.1 mm Agilent C8 reverse-phase column on a Shimadzu Prominence LC, eluting the compounds with a gradient of 2% to 50% of acetonitrile+0.1% formic acid for compound MI-50,382, or an isocratic flow of 2% acetonitrile+0.1% formic acid for the rest of the compounds listed. The concentration of the compound in the column effluent was measured using an Applied Biosystems API-3200 triple quadrupole mass spectrometer equipped with an electrospray sample injection system. The counts of the characteristic parent and product ions of each test compound were converted to concentration units by comparison with a standard calibration curve.

Series [8] addresses T2, human FMO1 Supersomes (Homo sapiens, UniProt Q01740).
T2 construct: purchased BD Biosciences 456241
T2 sequence (Q01740 1-532): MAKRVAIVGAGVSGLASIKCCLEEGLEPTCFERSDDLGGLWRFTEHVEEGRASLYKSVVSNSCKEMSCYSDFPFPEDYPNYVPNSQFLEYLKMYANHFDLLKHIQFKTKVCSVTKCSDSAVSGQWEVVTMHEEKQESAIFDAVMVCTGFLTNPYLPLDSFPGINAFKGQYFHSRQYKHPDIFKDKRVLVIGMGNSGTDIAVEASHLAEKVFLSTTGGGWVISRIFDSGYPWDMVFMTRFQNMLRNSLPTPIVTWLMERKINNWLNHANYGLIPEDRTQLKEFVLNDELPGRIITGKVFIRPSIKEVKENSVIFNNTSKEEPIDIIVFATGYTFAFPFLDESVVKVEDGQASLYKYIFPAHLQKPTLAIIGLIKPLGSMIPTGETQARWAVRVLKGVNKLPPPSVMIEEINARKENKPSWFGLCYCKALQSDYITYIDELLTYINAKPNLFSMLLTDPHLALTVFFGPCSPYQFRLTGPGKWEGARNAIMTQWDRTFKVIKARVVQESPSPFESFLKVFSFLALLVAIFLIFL
As to the kind of experiment: Metabolism by flavin monoxygenase 1 (FMO1) Supersomes. The following applies: after 6 hours (FIG. 2). The series is classed as in vitro ADME. As to the method:
[…] Aliquots were removed every 10 minutes, and 1% formic acid was added to halt the reaction. Samples were centrifuged, filtered through 0.2 micron spinfilter and the amount of each compound in the supernatants was quantitated using LC/MS/MS.

The nature of series [9]: Metabolites in serum and urine of dosed rats (LC-MS). The class given is in vivo. The following applies: rats, dosed orally. As to the method: Oxadiazoles disclosed herein as well as other oxadiazoles were investigated to determine the formation of metabolites. Animals were dosed, blood taken, serum prepared, serum proteins precipitated and ultrafiltrates prepared as described in Example 6. In separate experiments, urine was collected from rats for 16-24 hours after dosing, using standard metabolic cages. The urine container and collected urine were maintained at 4° C. Urine was lyophilized, taken back into water. The uftrafiltrate was prepared by adding formic acid to a final concentration of 1% to the urine samples, then filtered through a 0.2 um nylon membrane. The ultrafiltrate was subjected to LC-MS analysis. Instead of measuring the product ions in Q3, manual Q1 scans of the liquid chromatograph were undertaken, seeking parent ions of potential metabolites of the compounds. The criteria for identifying metabolites were as follows: (1) the ion should be present in the sera or urines of dosed rats, but not in sera or urines from non-dosed rats (2) the ion should be identifiable as a metabolic derivative of the dosed compound (e.g. loss of a functional chemical moiety, addition of a hydroxyl group or a glucuronic acid moiety, etc). Metabolites were determined not to be present if no compound meeting the above criteria could be detected in serum or urine.

Series [10] has as its system pooled male human liver microsomes. As to the kind of experiment: Metabolism by human liver microsomes, Example 33. The series is classed as in vitro ADME. The following applies: 6 hours incubation (FIGS. 4A, 4B). As to the method:
Compounds were incubated with pooled male human liver microsomes (BD Biosciences, #452172) and an NADP-regenerating system in a phosphate buffer (pH 7.4) for a total of 6 hours. Aliquots were removed every 2 hours, and 1% formic acid was added to halt the reaction. Samples were centrifuged, filtered through 0.2 micron spinfilter and the amount of each compound in the supernatants was quantitated using LC/MS/MS.

Series [11] has as its target T3, human muscarinic M1 receptors (Homo sapiens, UniProt P11229).
T3 construct: host or cells: A9L cells
T3 sequence (P11229 1-460): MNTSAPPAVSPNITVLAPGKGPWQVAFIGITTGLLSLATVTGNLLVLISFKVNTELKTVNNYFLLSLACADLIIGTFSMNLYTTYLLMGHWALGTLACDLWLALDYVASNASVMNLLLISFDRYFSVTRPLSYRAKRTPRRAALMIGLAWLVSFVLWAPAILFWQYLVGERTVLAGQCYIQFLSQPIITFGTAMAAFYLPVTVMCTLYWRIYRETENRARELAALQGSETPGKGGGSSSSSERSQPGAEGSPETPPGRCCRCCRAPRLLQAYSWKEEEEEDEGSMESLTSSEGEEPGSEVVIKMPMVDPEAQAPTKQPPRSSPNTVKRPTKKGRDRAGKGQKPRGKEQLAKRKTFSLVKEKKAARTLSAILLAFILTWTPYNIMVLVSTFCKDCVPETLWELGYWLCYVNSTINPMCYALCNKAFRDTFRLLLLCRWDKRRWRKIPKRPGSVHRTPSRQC
Kind of series: IP production in A9L cells with human M1 receptors (IPOne TR-FRET), Example 28. The class given is cell-based. A digest of the protocol: as §3

A short description of series [12]: in vitro. The class given is in vitro ADME. As to conditions: PAMPA, pH 7.4, PAMPA Permeability Coefficient (×10^6). Put shortly: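 Compounds at 400 μM in 100 mM phosphate buffer pH 7.4 diffused through a filter pre-wetted with 20 mg/mL porcine brain polar lipid extract in dodecane into matching buffer, 24 h at room temperature. Donor, acceptor and stock samples were acidified with 1% TFA, quantified by LC/UV, and passive diffusion rates calculated from peak areas.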

Series [13] is described as follows: in vitro. As to conditions: PAMPA.
Where [14] appears, read: percentage of maximal stimulation by carbachol.
The mark [15] stands for this setting: potency relative to carbachol at its EC50, semi-quantitative.

Four molecules from patent US9403806B1, “Cognition enhancing compounds and compositions, methods of making, and methods of treating” (NeuroSolis, Inc., priority 2010, dated 2016) can be followed below.

T1 sequence (P20309 whole entry): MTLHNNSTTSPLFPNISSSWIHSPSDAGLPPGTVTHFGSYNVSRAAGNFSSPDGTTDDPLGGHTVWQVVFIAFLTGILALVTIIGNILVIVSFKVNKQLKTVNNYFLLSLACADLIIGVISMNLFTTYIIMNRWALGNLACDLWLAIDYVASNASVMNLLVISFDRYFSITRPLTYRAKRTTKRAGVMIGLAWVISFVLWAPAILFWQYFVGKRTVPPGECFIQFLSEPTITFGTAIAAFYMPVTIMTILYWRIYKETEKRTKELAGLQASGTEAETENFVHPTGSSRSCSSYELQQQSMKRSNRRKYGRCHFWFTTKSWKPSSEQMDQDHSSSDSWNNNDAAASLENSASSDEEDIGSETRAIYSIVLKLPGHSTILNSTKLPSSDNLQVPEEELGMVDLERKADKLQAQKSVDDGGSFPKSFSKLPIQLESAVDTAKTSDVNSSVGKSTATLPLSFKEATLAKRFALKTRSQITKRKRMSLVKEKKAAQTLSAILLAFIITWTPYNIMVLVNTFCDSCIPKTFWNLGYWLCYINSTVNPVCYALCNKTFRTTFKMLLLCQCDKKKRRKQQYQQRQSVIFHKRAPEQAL

With `C[N+]1(C)[C@@H]2C[C@@H](OC(=O)[C@H](CO)c3ccccc3)C[C@H]1[C@@H]1O[C@@H]12` [NMS], the “effect on increase in inositol phosphate in the hippocampus caused by Compound 3” value in series [1] is “does not inhibit”. In series [2], the “reduction of salivation caused by transdermal iontophoretic delivery of Compound 3” value is reported as “greatly reduced”. Also, the “block of increase in salivary gland inositol phosphate caused by Compound 3” value was “some breakthrough activation” in [3] (antagonist 0.003 mg/kg); “nearly as effective as 0.1 mg/kg” in series [3] (antagonist 0.03 mg/kg to 0.01 mg/kg); “completely block” in [3] (antagonist 0.1 mg/kg (FIGS. 8A, 8B)). In series [4] (Compound 3 0.3 mg/kg (FIG. 12)), the “decrease in salivation caused by Compound 3” value is given as “dose-dependent decrease in salivation”. Moreover, in series [4] (MCD-386 1 mg/kg (FIG. 13)), the “reduction in salivation caused by MCD-386” value is reported as “dose-dependent reduction”.
Turning to “3-Methyl-5-(piperidin-3-yl)-1,2,4-oxadiazole [Compound 3]”, the “salivary flow after oral dosing” value in series [5] (rats, dosed orally) is “produced copious salivary flow”.
As to `[2H]C([2H])([2H])c1noc(C2CCCNC2)n1` (centres unmarked) [Compound 7, 3-D3-Methyl-5-(piperidin-3-yl)-1,2,4-oxadiazole], the “huM3/A9L Smax” value in series [6] (setting [14]) is 60%. In addition, the “huM3/A9L ED50 relative to CCh*” value in [6] (setting [15]) is given as “+/− (+/− potency 0.5-2x CCh)”. Also, in [7], the “penetration into the brain after oral dosing” value was “penetrated into the brain”. In series [7] (versus compound 1), the “plasma concentrations relative to compound 1 after oral dosing” value is recorded as “approximately 2.4 times”. For the same molecule, in [8], the “extent of metabolism in FMO Supersomes (in words)” value is listed as “less than half metabolized”. In addition, the “metabolites identified in plasma or urine” value in series [9] was “No metabolites were identified”. Further, the “muscarinic agonist activity in vivo” value in series [5] (in vivo) is given as “demonstrated muscarinic agonist activity in vivo”. For the same molecule, in series [10], the “metabolism in human liver microsomes (in words)” value was “metabolized significantly less in human liver microsomes than in rat liver microsomes”. Moreover, the “huM1/A9L Smax” value in [11] (setting [14]) came to 116%. The “huM1/A9L ED50 relative to CCh*” value in series [11] (setting [15]) is reported as “+ (+ potency 2-10x CCh)”.
`Clc1cccc(Cl)c1N=C1NCCN1` [Clonidine, reference compound]: the Papp in series [12] was 7.66 ×10⁻⁶ cm/s; in series [13], 7.95 ×10⁻⁶ cm/s.
